# Measurements published in PMC10938783, “A novel pan-PI3K inhibitor KTC1101 synergizes with anti-PD-1 therapy by targeting tumor suppression and immune activation” (Molecular Cancer, 2024).
# Where two headings read alike, the source gives them in different places.
# Experiments:
# [1] = tested on: PC3 cells gene expression; experiment: RNA-Seq (DEGs, GSEA) of PC3 cells; settings: 25 nM, 48 h
# CD4^+ T cells = experiment: T cell suppression assay (CFSE); format: cell-based; settings: Mus musculus, 72 h, read-out: IC50 proliferation
# Method: (§1) Spleens from naive mice were isolated and ground through 70-μm filters to generate a single-cell suspension. After RBC lysis, single-cell suspensions were stained with CD3, CD8, CD4, CD25 or CD127 antibodies. Viable CD8^+ T cells (CD3^+CD8^+), CD4^+ T cells (CD3^+CD4^+), and Tregs (CD3^+CD4^+CD25^+CD127^low/−) from single-cell suspensions were sorted by FACS. Then T cells were labelled with […] in pre-warmed PBS for 10 min at 37 °C. The CFSE-labelled T cells were seeded in 96-well plates pre-coated with 10 μg/mL CD3 and 1 μg/mL CD28 antibodies and cultured in 1640 media with 10% FBS, 1 mM Sodium Pyruvate (Thermo, 11,360,070), 50 μM β-ME and 100 IU/mL IL2, as well as different concentrations of KTC1101 or solvent control. After 72 h, cells were harvested and the CFSE signal was measured by flow cytometry. Cell growth rate was calculated by the percentage of live, proliferated cell number at each drug concentration vs. solvent control.
# CD8^+ T cells = experiment: T cell suppression assay (CFSE); format: cell-based; settings: Mus musculus, 72 h, read-out: IC50 proliferation
# Method: as §1
# [2] = tested on: kinase panel comprising 50 kinases; experiment: Kinase profiling, panel of 50 kinases; format: biochemical; settings: 1 μM
# Method: Procedures for the preparation of KTC1101 are described in supplemental data. To investigate the PI3K inhibitory efficacy of KTC1101, its impact on the kinase activity of PI3K isoforms was assessed using the Adapta kinase assay as previously reported. Initially, a dilution series of 2.5 µL KTC1101 or DMSO (control) was prepared and added to the respective wells of a 384-well plate. Subsequently, optimized 2.5 µL kinase solutions, including PIK3CA/PIK3R1, PIK3CB/PIK3R1, PIK3CG, and PIK3CD/PIK3R1, were introduced to each well. After adding the kinase solutions, 5 µL ATP and PIP2:PS lipid kinase substrate was introduced into each well and incubated for 1 h at room temperature. This step allows for the initiation and progression of the kinase reaction. Following the incubation, a detection solution (5 µL) was added to all the wells. This solution contained 30 mM EDTA to stop the kinase reaction, 6 nM Eu-labeled anti-ADP antibody, and a 3 × concentration of Alexa Fluor® 647 ADP tracer. The EDTA effectively terminates the kinase reaction, while the anti-ADP antibody and ADP tracer are crucial for the detection of ADP produced during the kinase reaction, which correlates with PI3K activity. […] Finally, the fluorescence of each well was measured using a Multi-Mode Microplate Reader (Spark, Tecan). […]
# [3] = Plasma metabolic stability assay; format: in vitro ADME; settings: mouse plasma, 37°C, 120 min incubation
# Method: 495 µL of plasma was placed in a 96-well plate and pre-incubated at 37°C for 5 min.
# [4] = tested on: JFCR39 panel of 39 human tumor cell lines; experiment: JFCR39 panel growth inhibition, panel statistics; format: cell-based; settings: for GI50: Homo sapiens
# Method: JFCR39 drug discovery system was used to measure the growth inhibitory activities and identify the target of KTC1101. The JFCR39 panel consists of 39 cell lines seeded in 96-well plates. After 48-h treatment with KTC1101, cell growth was measured using the sulforhodamine B assay. […] The deviation of log GI50 for each cell line from the average log GI50 across the JFCR39 panel was plotted as a fingerprint. MG-MID (mean of Log GI50 values) represents the average log GI50 for all 39 cell lines. The most sensitive and least sensitive cell lines were identified by calculating the difference in their log GI50 values (Range) and the difference between the most sensitive cell line and the average GI50 on the JFCR39 panel (Delta). The fingerprint of KTC1101 was compared with the fingerprints of reference compounds in the database. The Pearson correlation coefficient (r) was calculated (n = 39).
# HSC2 tumors = experiment: HSC2 xenograft in BALB/c nude mice; format: in vivo, mouse; settings: 100 mg/kg PO
# Method: BALB/c nude, NSG, and C57BL/6J mice were obtained from Tianjin Medical University. The housing temperature was controlled, ranging from 20.5–24 °C, and humidity was monitored but not controlled ranging from 30–70%. The 12-h daily light cycle was from 06:00 to 18:00. To generate a murine subcutaneous tumor model, PC3 and HSC2 cells were subcutaneously injected into the right lateral flank of 4- to 5-week-old male BALB/c nude mice. TMD8, CAL33, and S24 cells were subcutaneously injected into the right lateral flank of 4- to 5-week-old male NSG mice. When tumors reached a volume of 300–500 mm^3, they were excised, diced into 2 mm × 2 mm × 2 mm pieces, and implanted into the right flanks of BALB/c nude or NSG mice. Tumors were allowed to grow to a volume of 100 mm^3, and then the animals were randomly divided into several groups. Each group of five mice was treated with either vehicle or KTC1101 (25, 50, or 100 mg/kg, PO). Tumor size was measured every 3 d or 4 d until the endpoint. The tumor volume was calculated using the following formula: length × width × height/2. At the end of the experimental period, mice were euthanized by overdosing on pentobarbital sodium, and the tumors were removed. Tumor tissue was formalin-fixed and paraffin-embedded for histological analysis.
compound,measurement,setting,value
"COc1cc(N)cc2c1nc(C(F)F)n2-c1nc(N2CCCOCC2)nc(N2CCOCC2)n1 [KTC1101, 2-(difluoromethyl)-4-methoxy-1-(4-morpholino-6-(1,4-oxazepan-4-yl)-1,3,5-triazin-2-yl)-1H-benzo[d]imidazol-6-amine]",expression of genes associated with the PI3K/AKT/mTOR pathway (GSEA),[1],reduction in the expression of genes
same,IC50,CD4^+ T cells,16 nM
same,IC50,CD8^+ T cells,31.7 nM
same,"inhibition rate, all four PI3K targets",[2],greater than 90%
same,"inhibition rate, other kinases of the panel",[2],less than 50%
same,half-life at 1 µM,[3],> 2 h
same,GI50,"[4]; JFCR39 panel, read-out: mean GI50 across all 39 cell lines",23.4 nM
same,GI50,"[4]; all 39 cell lines, read-out: MG-MID (mean of Log GI50 values) (converted)",23.4 nM
same,fold lower mean GI50 than Copanlisib,[4]; JFCR39 panel,5.7 fold
same,fold lower mean GI50 than ZSTK474,[4]; JFCR39 panel,13.7 fold
same,tumor growth,HSC2 tumors,Tumor growth arrest
